Results reported in ChEMBL document CHEMBL1201862, “PubChem BioAssay data set” (2004).
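Five compound concentrations were applied to cells in 96-well plates for 48 hours; endpoints were derived by simple linear interpolation of the resulting dose-response curve. GI50: concentration for 50% inhibition of growth.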 Active and inactive are the calls of the source. No stated cut-off is given here; in the data, active = GI50 up to about 1.1 µM and inactive = higher.

Tests used:
Assay in all cases: growth of human tumour cells (NCI), 48 h
786-0 = tested on: 786-0
A498 = tested on: A498
ACHN = tested on: ACHN
CAKI-1 = tested on: CAKI-1
HCC 2998 = tested on: HCC 2998
HCT-116 = tested on: HCT-116
HL-60 = tested on: HL-60
HOP-62 = tested on: HOP-62
Malme-3M = tested on: Malme-3M
NCI-H460 = tested on: NCI-H460
RXF 393 = tested on: RXF 393
SF-539 = tested on: SF-539
SW-620 = tested on: SW-620
TK-10 = tested on: TK-10
UACC-257 = tested on: UACC-257
SNB-19 = tested on: SNB-19

Measured: GI50

Cc1ccc(/C=N/NS(=O)(=O)c2ccccc2)c(C)c1
inactive: 786-0 > 100 µM | A498 > 100 µM | ACHN > 100 µM | CAKI-1 > 100 µM | HCC 2998 > 100 µM | HCT-116 > 100 µM | HL-60 > 100 µM | HOP-62 > 100 µM | Malme-3M > 100 µM | NCI-H460 > 100 µM | RXF 393 > 100 µM | SF-539 > 100 µM | SW-620 > 100 µM | TK-10 > 100 µM | UACC-257 80 µM

COc1ccc(N2C(=O)C3c4[nH]c5ccccc5c4C4CCCCCCC4C3C2=O)cc1 (stereo unspecified)
inactive: 786-0 3.13 µM | A498 25.5 µM | ACHN 6.38 µM | CAKI-1 17 µM | HCC 2998 11.2 µM | HCT-116 3.85 µM | HL-60 22.5 µM | HOP-62 8.22 µM | Malme-3M 16.6 µM | NCI-H460 7.18 µM | SF-539 7.74 µM | SNB-19 10.2 µM | SW-620 7.14 µM | TK-10 20.1 µM | UACC-257 38.9 µM

CC(=O)OCC1OC(N2C(=O)C(=O)c3cc(C)ccc32)C(OC(C)=O)C(OC(C)=O)C1OC(C)=O (stereo unspecified)
inactive: 786-0 38.9 µM | A498 > 100 µM | ACHN 50.9 µM | CAKI-1 > 100 µM | HCT-116 59.7 µM | HL-60 22.4 µM | HOP-62 > 100 µM | Malme-3M > 100 µM | NCI-H460 > 100 µM | RXF 393 39.8 µM | SF-539 > 100 µM | SNB-19 > 100 µM | SW-620 > 100 µM | TK-10 > 100 µM | UACC-257 > 100 µM

CC1=C2C(=O)O[C@@H](c3ccoc3)[C@]2(C)CCC1 [FRAXINELLONE]
inactive: 786-0 > 100 µM | ACHN > 100 µM | CAKI-1 > 100 µM | HCC 2998 > 100 µM | HCT-116 > 100 µM | HL-60 > 100 µM | HOP-62 > 100 µM | Malme-3M > 100 µM | NCI-H460 > 100 µM | SF-539 > 100 µM | SNB-19 > 100 µM | SW-620 > 100 µM | TK-10 > 100 µM | UACC-257 > 100 µM

CC(C)(O)[C@@H]1CC[C@@]2(C)CCC[C@H](O)[C@H]2C1
inactive: 786-0 > 100 µM | A498 > 100 µM | ACHN > 100 µM | CAKI-1 > 100 µM | HCC 2998 > 100 µM | HCT-116 > 100 µM | HL-60 > 100 µM | HOP-62 > 100 µM | Malme-3M > 100 µM | NCI-H460 > 100 µM | SF-539 > 100 µM | SNB-19 > 100 µM | SW-620 > 100 µM | TK-10 > 100 µM | UACC-257 > 100 µM

CC12c3ccccc3C(OC=O)(c3ccccc31)C1(C)c3ccccc3C2(OC=O)c2ccccc21
inactive: 786-0 > 100 µM | A498 > 100 µM | ACHN > 100 µM | CAKI-1 > 100 µM | HCC 2998 > 100 µM | HCT-116 > 100 µM | HL-60 > 100 µM | HOP-62 48.5 µM | Malme-3M > 100 µM | NCI-H460 81.3 µM | RXF 393 > 100 µM | SNB-19 > 100 µM | SW-620 > 100 µM | TK-10 > 100 µM | UACC-257 > 100 µM

O=C(O)CCSC(=O)Nc1cccc(F)c1
inactive: 786-0 > 100 µM | A498 > 100 µM | ACHN > 100 µM | HCC 2998 > 100 µM | HL-60 23.3 µM | HOP-62 14.3 µM | NCI-H460 > 100 µM | SF-539 > 100 µM | SNB-19 > 100 µM | SW-620 > 100 µM | TK-10 > 100 µM | UACC-257 > 100 µM

CC1CN(c2ccc(Cl)cc2)CC(C)(C)OC(=O)O1 (stereo unspecified)
inactive: 786-0 > 100 µM | ACHN > 100 µM | CAKI-1 > 100 µM | HCC 2998 > 100 µM | HCT-116 > 100 µM | HL-60 > 100 µM | HOP-62 > 100 µM | Malme-3M > 100 µM | NCI-H460 > 100 µM | RXF 393 > 100 µM | SF-539 > 100 µM | SNB-19 > 100 µM | SW-620 > 100 µM | TK-10 > 100 µM | UACC-257 > 100 µM

CCOC(=O)C(Cc1ccc([N+](=O)[O-])cc1)NC(=O)CC1c2ccccc2-c2ccccc21 (stereo unspecified)
inactive: 786-0 39.1 µM | A498 > 100 µM | ACHN 20.7 µM | HCC 2998 > 100 µM | HCT-116 > 100 µM | HL-60 > 100 µM | HOP-62 35.2 µM | Malme-3M 20.6 µM | NCI-H460 > 100 µM | RXF 393 18 µM | SF-539 27.9 µM | SNB-19 39.3 µM | SW-620 > 100 µM | TK-10 32.7 µM | UACC-257 24.5 µM

CCOC(=O)CCC1(C(=O)OC)CCCC1=O (stereo unspecified)
inactive: 786-0 > 100 µM | A498 > 100 µM | ACHN > 100 µM | HCC 2998 > 100 µM | HCT-116 > 100 µM | HL-60 > 100 µM | HOP-62 > 100 µM | Malme-3M > 100 µM | NCI-H460 > 100 µM | RXF 393 > 100 µM | SF-539 > 100 µM | SNB-19 > 100 µM | SW-620 > 100 µM | TK-10 > 100 µM | UACC-257 > 100 µM

COC(=O)C1CC/C(=N\c2cccc(C(F)(F)F)c2)N1 (stereo unspecified)
inactive: 786-0 > 100 µM | A498 > 100 µM | ACHN > 100 µM | CAKI-1 > 100 µM | HCC 2998 > 100 µM | HCT-116 > 100 µM | HL-60 > 100 µM | HOP-62 > 100 µM | Malme-3M > 100 µM | NCI-H460 > 100 µM | SNB-19 > 100 µM | SW-620 > 100 µM | TK-10 > 100 µM | UACC-257 > 100 µM

CCOC(=O)/C(=C/c1ccc(C(F)(F)F)cc1)N(CC)CC
inactive: 786-0 > 100 µM | A498 > 100 µM | ACHN 42.1 µM | CAKI-1 58.6 µM | HCC 2998 > 100 µM | HCT-116 40 µM | HL-60 > 100 µM | HOP-62 42.6 µM | Malme-3M 57.5 µM | NCI-H460 > 100 µM | SF-539 > 100 µM | SW-620 84.1 µM | TK-10 > 100 µM | UACC-257 66.8 µM

Cc1cc(C)nc(NS(=O)(=O)c2ccc(NC(=O)c3cccc4c(Nc5ccc(S(=O)(=O)Nc6nc(C)cc(C)n6)cc5)c5ccc(Cl)cc5nc34)cc2)n1
inactive: 786-0 28.4 µM | A498 45 µM | ACHN 27.3 µM | CAKI-1 19.5 µM | HCC 2998 36.6 µM | HCT-116 28.1 µM | HOP-62 24.4 µM | Malme-3M 16.4 µM | NCI-H460 37 µM | RXF 393 78.3 µM | SF-539 37.8 µM | SNB-19 28.1 µM | SW-620 54.1 µM | TK-10 30.8 µM | UACC-257 20.8 µM

Sc1nnc(C(c2ccccc2)c2ccccc2)[nH]1
inactive: 786-0 > 100 µM | A498 > 100 µM | ACHN > 100 µM | HCC 2998 > 100 µM | HCT-116 > 100 µM | HL-60 > 100 µM | HOP-62 > 100 µM | Malme-3M > 100 µM | NCI-H460 > 100 µM | RXF 393 > 100 µM | SF-539 > 100 µM | SNB-19 > 100 µM | SW-620 > 100 µM | TK-10 > 100 µM | UACC-257 > 100 µM

OC1c2ccccc2C2(O)C1C(c1ccccc1)C(c1ccccc1)C2(O)c1ccccc1 (stereo unspecified)
inactive: 786-0 11.5 µM | ACHN 5.82 µM | CAKI-1 15.5 µM | HCC 2998 11.2 µM | HL-60 8.87 µM | HOP-62 13.2 µM | Malme-3M 12.7 µM | NCI-H460 4.56 µM | RXF 393 16 µM | SF-539 12.6 µM | SNB-19 23.5 µM | SW-620 15.8 µM | TK-10 23.2 µM | UACC-257 14.3 µM

c1ccc(C2Nc3ccccc3C3OCCCC23)cc1 (stereo unspecified)
inactive: 786-0 27.6 µM | A498 21.2 µM | ACHN 11.3 µM | CAKI-1 2.47 µM | HCC 2998 35.8 µM | HCT-116 17.6 µM | HL-60 24.7 µM | Malme-3M 30.7 µM | NCI-H460 > 10 µM | RXF 393 18.7 µM | SF-539 16.1 µM | SNB-19 31.3 µM | SW-620 26 µM | UACC-257 30.9 µM

O=C(O)C1Cc2[nH]cnc2CN1 (stereo unspecified)
inactive: 786-0 > 100 µM | A498 > 100 µM | ACHN > 100 µM | CAKI-1 > 100 µM | HCC 2998 > 100 µM | HCT-116 > 100 µM | HL-60 > 100 µM | Malme-3M > 100 µM | NCI-H460 > 100 µM | SF-539 > 100 µM | SNB-19 > 100 µM | SW-620 > 100 µM | TK-10 > 100 µM | UACC-257 > 100 µM

O=C1C2C3CCC(C2C(=O)N1CO)C1C2C(=O)N(CO)C(=O)C2C31 (stereo unspecified)
inactive: 786-0 43.3 µM | A498 > 100 µM | ACHN > 44.1 µM | CAKI-1 > 96.6 µM | HCT-116 28.2 µM | HL-60 12 µM | HOP-62 > 100 µM | Malme-3M > 100 µM | NCI-H460 22.7 µM | RXF 393 > 46.9 µM | SF-539 43 µM | SNB-19 > 100 µM | SW-620 26.2 µM | TK-10 > 100 µM | UACC-257 > 100 µM
